In patent publication EP0816361A2, “Preparation of substituted alkenoic acids” (ELI LILLY AND COMPANY, priority 1996, dated 1998):

Test system: TXA2 agonist activity
Test: Absence of Agonist Activity (pressor response in pithed rats)
Assay type: in vivo

pressor response (i.v. administration, doses up to 10 mg/kg) | mean arterial pressure (one minute after dosing at 0.1 mg/kg i.v.) | Compound
absence of a pressor response | – | O=C(O)CCCC/C=C(\c1ccc(-c2nc(C(=O)NCCCCC3CCCCC3)co2)cc1)c1cccnc1 [Example 2, (E)-7-[4-[4-[[(4-Cyclohexylbutyl)amino]carbonyl]-2-oxazolyl]phenyl]-7-(3-pyridyl)hept-6-enoic Acid]
– | transient, but significant, increase | O=C(O)CCC/C=C\C[C@H]1[C@@H]2CC[C@@H](C2)[C@@H]1NS(=O)(=O)c1ccccc1 [Example S-145]
